The source made the active and inactive calls. No cut-off for these calls is given here.
Key:
[1] = Antioxidant activity assessed as DPPH free radical scavenging activity after 30 mins; format: functional
Leishmania donovani [2] = test: Antileishmanial activity against Leishmania donovani NHOM/IN/80/DD8 promastigote forms assessed as reduction in parasite growth after 72 hrs by MTT assay; format: functional; conditions: NHOM/IN/80/DD8, 72 h
Leishmania donovani [3] = test: Antileishmanial activity against Leishmania donovani NHOM/IN/80/DD8 promastigote forms assessed as reduction in parasite growth up to 500 uM after 72 hrs by MTT assay; format: functional
HeLa = test: Cytotoxicity against human HeLa cells at 500 ug/ml after 72 hrs by MTT assay; format: cell-based

IC50 [1] | SMILES | IC50 (Leishmania donovani [2]) | Activity (Leishmania donovani [3]) | Activity (HeLa)
58.8 µM | FC(F)(F)c1ccc(NC(=S)Nn2c(S)nnc2-c2cnccn2)cc1 | 289 µM | – | –
58.8 µM | CCOc1ccc(/C=N/n2c(S)nnc2-c2cnccn2)cc1OC | 190 µM | – | –
14 µM | O=C1O[C@H]([C@@H](O)CO)C(O)=C1O [ASCORBIC ACID] | – | – | –
39.8 µM | Sc1nnc(-c2cnccn2)n1/N=C/c1ccc(Cl)cc1 | 198 µM | – | –
75.9 µM | Oc1ccc(/C=N/n2c(S)nnc2-c2cnccn2)c(O)c1 | 106 µM | – | –
52.4 µM | Sc1nnc(-c2cnccn2)n1/N=C/c1ccccc1 | 95.2 µM | – | –
14 µM | CN(C)c1ccc(/C=N/n2c(S)nnc2-c2cnccn2)cc1 | 113 µM | – | –
47.8 µM | N#Cc1ccc(/C=N/n2c(S)nnc2-c2cnccn2)cc1 | 99 µM | – | –
81.2 µM | Sc1nnc(-c2cnccn2)n1/N=C/c1ccc(Cl)cc1Cl | 241 µM | – | –
72.4 µM | O=[N+]([O-])c1cccc(/C=N/n2c(S)nnc2-c2cnccn2)c1 | 347 µM | – | –
58.8 µM | Fc1ccc(/C=N/n2c(S)nnc2-c2cnccn2)cc1 | 382 µM | – | –
14 µM | Fc1cccc(NC(=S)Nn2c(S)nnc2-c2cnccn2)c1 | 287 µM | – | –
81.2 µM | S=C(Nc1ccc(Cl)c(Cl)c1)Nn1c(S)nnc1-c1cnccn1 | 229 µM | – | –
58.9 µM | Fc1ccc(NC(=S)Nn2c(S)nnc2-c2cnccn2)c(F)c1 | 176 µM | – | –
69.2 µM | Oc1ccc2ccccc2c1/C=N/n1c(S)nnc1-c1cnccn1 | 178 µM | – | –
58.8 µM | S=C(Nc1ccccc1)Nn1c(S)nnc1-c1cnccn1 | – | inactive | –
75.9 µM | S=C(Nc1ccc2ccccc2c1)Nn1c(S)nnc1-c1cnccn1 | 336 µM | – | –
75.9 µM | Oc1ccccc1/C=N/n1c(S)nnc1-c1cnccn1 | 102 µM | – | –
58.9 µM | Oc1ccc(/C=N/n2c(S)nnc2-c2cnccn2)cc1 | 79 µM | – | Non-Toxic
69.2 µM | Fc1ccc(NC(=S)Nn2c(S)nnc2-c2cnccn2)cc1 | 322 µM | – | –
47.7 µM | CCc1ccc(/C=N/n2c(S)nnc2-c2cnccn2)cc1 | 201 µM | – | –
58.9 µM | S=C(Nc1ccc(Cl)cc1Cl)Nn1c(S)nnc1-c1cnccn1 | 79 µM | – | –
75.9 µM | S=C(Nc1ccc(Cl)cc1)Nn1c(S)nnc1-c1cnccn1 | – | inactive | –

Reference: ChEMBL document CHEMBL4052753, “Antileishmanial potential of fused 5-(pyrazin-2-yl)-4H-1,2,4-triazole-3-thiols: Synthesis, biological evaluations and computational studies” (Bioorg Med Chem Lett, 2017)
